Laboratory results taken from patent publication US20040062807A1, “Biocide compositions and a method for their production” (priority 2001, published 2004).

Tests used:
[1] = test system: fungus spores; assay: Fungus spore germination in growth media with fungicide composition (colony count); assay type: cell-based, unidentified mold; conditions: 3-5 days incubation
Protocol: The fungus was allowed to grow at 25° C. for 3-5 days. At the end of this period, the diameter of the fungus on the plate was measured. All results were duplicated to assure accuracy. In a second series of experiments, the growth of fungus spores was measured under the same conditions as those described above. The number of colonies were measured, again after 3-5 days of incubation.

[2] = test system: unidentified mold; assay: Growth of mold on petri dishes with fungicide composition in growth media (diameter); assay type: cell-based; conditions: 25° C., 3-5 days
Protocol: The fungus was allowed to grow at 25° C. for 3-5 days. At the end of this period, the diameter of the fungus on the plate was measured. All results were duplicated to assure accuracy.

[3] = 15% composition in growth media
[4] = 25% composition in growth media

For O=C([O-])[O-].[Ca+2] [Calcium carbonate], which “Fungus Germination (CFU per ml)” value ([1]; 5% composition in growth media) is on record?
The value was 100 CFU per ml.

What about the “Fungus Germination (CFU per ml)” value [1, 3] of the same compound?
Its value is 150 CFU per ml.

And the “Fungus Germination (CFU per ml)” value [1, 4]?
Its value is 110 CFU per ml.

What about the “Growth of Fungus (CFU diameter)” value ([2]; 5% composition in growth media) of the same compound?
Its value is 9 cm.

What about the “Growth of Fungus (CFU diameter)” value [2, 3] of the same compound?
Its value is 9 cm.

What about the “Growth of Fungus (CFU diameter)” value [2, 4] of the same compound?
The value was 9 cm.
